The numbers were not newly measured in US20060036094A1 (priority 2004, published 2006), which cites them from elsewhere.

This series relates to phorbol myristate-induced inflammation.

With zoanthamine, the “inhibitory activity toward phorbol myristate-induced inflammation” value is recorded as “potent inhibitory activity”.
